Test results published in article PMC5395648, “Targeted Modification of a Novel Amphibian Antimicrobial Peptide from Phyllomedusa tarsius to Enhance Its Activity against MRSA and Microbial Biofilm” (Frontiers in Microbiology, 2017).
Converted amounts (≈) assume the structure as drawn. Non-standard residues stand in square brackets, D forms with d. Residues, ends and D or L forms follow the SMILES beside them. No end group written: not given here.

How the values were obtained:
[1] = system: Pseudomonas aeruginosa (ATCC 27853)
Protocol: (§1) The antimicrobial activity of each synthetic peptide was evaluated using the broth dilution method (Wiegand et al., [2008]). In brief, different concentrations of the peptides were incubated with microorganisms under defined conditions. Six different microorganisms were used in the assay: the Gram-positive bacteria Staphylococcus aureus (NCTC10788), Enterococcus faecalis (NCTC12697), and methicillin-resistant Staphylococcus aureus (MRSA) (NCTC 12493); the Gram-negative bacteria Escherichia coli (NCTC 10418) and Pseudomonas aeruginosa (ATCC 27853); and the yeast Candida albicans (NCYC 1467). Each microorganism was cultured in fresh Mueller-Hinton broth (MHB) overnight and then subcultured in fresh medium to a cell density equivalent to 10^8 colony-forming units (CFU)/ml. The microbial suspension was diluted with fresh MHB to a concentration of 1 × 10^5 CFU/ml. Peptide samples were dissolved in the culture medium MHB to prepare a 100-fold stock solutions and then 1 μl of each peptide solution was mixed with 99 μl of diluted bacterial culture to get a final concentration range from 1 to 512 μg/ml in two-fold dilution. […] From these wells, 10 μl of the overnight culture were added to a Mueller-Hinton agar (MHA) plate and cultured at 37°C for 16–20 h.

S. aureus biofilm = format: cell-based, Staphylococcus aureus; settings: for MBEC: 48 h
Protocol: MBIC and MBEC assays were performed using microtiter plates based on a modified 2,3,5-triphenyl tetrazolium chloride (TTC) method (Sabaeifard et al., [2014]). Overnight cultures were washed with sterile phosphate-buffered saline (PBS) and diluted with fresh broth to 10^7 CFU/ml. […] For the MBEC assay, 200 μl of inoculum was placed in a flat-bottomed microtiter plate for 48 h to form mature biofilms. Following sufficient growth time, mature biofilms were washed twice to remove the planktonic cells and incubated with a series of peptide concentrations (1–512 μg/ml) at 37°C for 20–24 h. After sufficient growth, plates were washed twice with sterile PBS followed by the addition of fresh medium (200 μl per well) and stained with 50 μl 1% TTC (g/v) solution for 5 h. After incubation, 200 μl of the supernatant from each well were transferred to a new plate and their absorbance values were measured at 470 nm using a Synergy HT plate reader (BioTek, USA).

[2] = system: Enterococcus faecalis (NCTC12697)
Protocol: as §1

[3] = system: Staphylococcus aureus (NCTC10788)
Protocol: as §1

[4] = system: Escherichia coli (NCTC 10418)
Protocol: as §1

horse erythrocytes = format: cell-based
Protocol: The haemolysis assay was performed by mixing the peptides with mammalian erythrocytes obtained from fresh defibrinated horse blood. An appropriate volume of horse blood was transferred and washed with PBS until the supernatant was clear. A series of peptide solutions were incubated with a 2% suspension of red blood cells at final concentrations of 1-512 μg/ml at 37°C for 2 h. For positive and negative controls, the red blood cells were incubated with 1% Triton-X 100 and PBS, respectively. After incubation, 200 μl of the supernatant from each sample was transferred to a microtiter plate and the absorbance at 550 nm was measured with a Synergy HT plate reader (BioTek, USA). The therapeutic index (TI), a parameter recommended by the US FDA to indicate safety/efficacy usage, was calculated as the peptide concentration causing 50% haemolysis of the red bloods cells (HC50) divided by the geometric mean of the peptide MICs against the relevant bacteria (GM). […] In the former case, the MIC that was used when no inhibition was observed was the 2-fold maximum tested value ([…] al., [2016]). Data were analyzed to obtain the mean and standard error of responses. The statistical analyses were performed by one-way ANOVA and the statistical significance of the differences was indicated as ^*p < 0.05, ^**p < 0.01, ^***p < 0.001, and ^****p < 0.0001. The dose-response curves were constructed using a “best-fit” algorithm and HC50 was calculated through the data analysis package provided in GraphPad Prism 6 (GraphPad Software, USA).

[5] = system: Candida albicans (NCYC 1467)
Protocol: as §1

[6] = system: methicillin-resistant Staphylococcus aureus (MRSA) (NCTC 12493)
Protocol: as §1

Protocol for E. coli: The stability of the peptides was investigated by incubating them with serum and evaluating the loss of antimicrobial activity. […] Following a 4 h incubation at 37°C, the peptide solutions were briefly centrifuged and 1 μl of each concentration was mixed with 99 μl of diluted bacterial culture (5 × 10^5 CFU/ml) in a 96-well plate. The plate was then incubated at 37°C for 16–20 h. The MICs in the presence of serum were determined by use of a Synergy HT plate reader (BioTek, USA).

Compound | MBC [1] | MIC [1] | MBIC (S. aureus biofilm) [µg/mL] | MBEC (S. aureus biofilm) [µg/mL] | MBC [2] | MIC [2] | MBC [3] [µg/mL] | MIC [3] [µg/mL] | MBC [4] | MIC [4] | HC50 (horse erythrocytes) [µg/mL] | MBC [5] | MIC [5] | MBC [6] | MIC [6] | MIC after serum degradation 4 h (E. coli) [µg/mL] | haemolytic activity (in words) (horse erythrocytes)
CC[C@H](C)[C@H](NC(=O)[C@H](C)NC(=O)[C@H](CCCCN)NC(=O)[C@@H](NC(=O)[C@H](C)NC(=O)[C@@H](NC(=O)[C@@H]1CCCN1C(=O)[C@@H](NC(=O)[C@H](CCSC)NC(=O)CNC(=O)[C@@H](CC(C)C)NC(=O)[C@@H](N)CC(C)C)[C@@H](C)CC)C(C)C)[C@@H](C)CC)C(=O)N[C@@H](CO)C(=O)N[C@@H](C)C(=O)N[C@@H](CC(C)C)C(=O)N[C@@H](CO)C(=O)N[C@@H](CCCCN)C(=O)N[C@@H](CC(C)C)C(N)=O [medusin-PT1a] (H-L[dL]GMIPVAIKAISALSKL-NH2) | > 512 µg/mL | 128 µg/mL (≈ 69.7 µM) | 32 | 64 | 32/32 μg/ml | 32/32 μg/ml | 16 (≈ 8.71 µM) | 8 (≈ 4.35 µM) | 128/128 μg/ml | 128/128 μg/ml | 226.7 | 8/8 μg/ml | 8/8 μg/ml | 32 µg/mL (≈ 17.4 µM) | 16 µg/mL (≈ 8.71 µM) | – | –
LLGMIKVAITAISALSKL-NH2 [medusin-PT2] | >512/>512 μg/ml | – | 32 | 256 | 32/32 μg/ml | 32/32 μg/ml | 16 | 8 | – | – | 93.83 | 8/8 μg/ml | 8/8 μg/ml | 32/32 μg/ml | 32/32 μg/ml | – | –
LLGMIPVAIKAISALSKL-NH2 [medusin-PT1] | >512/>512 μg/ml | >512/>512 μg/ml | 32 | 128 | 32/32 μg/ml | 32/32 μg/ml | 16 | 8 | – | – | 102.2 | 16/16 μg/ml | 16/16 μg/ml | 32 µg/mL | 16 µg/mL | > 512 | –
LLGMIPVAITAISALSKL-NH2 [medusin-PT] | >512/>512 μg/ml | – | 512 | >512 | >512/>512 μg/ml | >512/>512 μg/ml | 128 | 64 | >512/>512 μg/ml | – | 1.814e+06 | >512/>512 μg/ml | >512/>512 μg/ml | >512/>512 μg/ml | >512/>512 μg/ml | – | extremely low haemolytic activity
